From patent publication US20230146795A1, “ENHANCEMENT OF ANTI-TUMOR ACTIVITY OF SHP2 INHIBITOR PYRIMIDINONE IN COMBINATION WITH NOVEL CANCER MEDICINES IN CANCERS” (TAIHO PHARMACEUTICAL CO., LTD., priority 2020, published 2023) come the findings set out here.

Each structure is given as a SMILES string.

Assay [1] deals with human pancreatic cancer cell line MIA PaCa-2 (KRAS mutation). As to the kind of experiment: Antitumor effect on MIA PaCa-2 tumor subcutaneously implanted to CB17 SCID mouse. It is filed as in vivo. Here is the method:
MIA PaCa-2 cell line carries KRAS mutation.
A human pancreatic cancer line, MIA PaCa-2 (available from American Type Culture Collection), suspended in a mixture of PBS and Matrigel was subcutaneously implanted to male CB17 SCID mice at 7-10 weeks of age (Charles River UK) at 5×10^6 cells/100 μl/mouse. Tumors were measured with a pair of digital calipers, and tumor volumes (TV) were calculated by applying the formula for ellipsoid. Mice with TV of 146 to 360 mm^3 were assigned to study groups such that average TV was equal among groups.
Oral administration of Compound 1 or its vehicle, and Compound 9 or its vehicle was started on Day 1. Compound 1 was dissolved in an acidified solution of 0.5% (w/v) hydroxypropyl methylcellulose (Sigma) and administered via oral gavage at 6 or 12 mg/kg/day. Compound 9 was suspended in 20% (v/v) PEG200 (Sigma) and 0.5% (w/v) methylcellulose (Sigma) and administered via oral gavage at 50 mg/kg/day. All treatments were given once a day for 21 consecutive days, except for the combination group receiving 12 mg/kg of Compound 1 and 50 mg/kg of Compound 9, in which the animals were treated for 5 days per week for 3 weeks.
Antitumor effects were evaluated by comparing the median relative tumor volumes (RTV) between control- and treated groups. RTV was calculated by dividing TV on any test day by TV on Day 1, expressed as a percentage. T/C (%), as a measure of anti-tumor activity, was calculated by dividing median RTV values of each compound-administered group by median RTV of the control group receiving both vehicles.

In assay [2] the test system is 97 cell lines harboring driver mutations in KRAS. Kind of assay: In vitro cell line screening, 3D cultures (CellTiter-Glo 3D), KRAS panel. The settings on record: sensitive = maximum inhibition greater than 50% relative to DMSO, max 3 μM Compound 1, 1 μM Compound 9, 120-hour incubation. The format is cell-based, human. Here is the method: (§1) The effect of Compound 1 in combination with an ERK inhibitor, Compound 9, on 97 cell lines harboring driver mutations in KRAS (G12A, G12C, G12F, G12R, G12S, G12V, G13C, G13D, A59G, Q61H, Q61K, Q61L or A146T) was assessed using the following technique. Cells from human cancer cells lines (from commercial sources such as ATCC or ECCAC) were grown as 3D cultures by seeding cells into round-bottom ultra-low attachment 96-well tissue culture plates (Corning) followed by centrifugation. Cells were allowed to recover for 16-24 hours prior to compound treatment. Compounds or dimethyl sulfoxide (DMSO) were added at various combinations of compound concentrations in a final DMSO concentration of up to 0.5% (v/v). Following a total of 120-hour incubation, CellTiter-Glo 3D Reagent(registered trademark) (Promega) was added. Plates were incubated for 10 minutes with gentle shaking at room temperature to lyse the cells, then incubated for further 40 minutes at room temperature to stabilize luminescence signal. After mixing, the mixture was transferred to a fresh plate and luminescence was determined on EnVision plate reader (Perkin Elmer).
(§2) For both 3D and 2D assays, the combination was tested as matrix of various concentrations of Compound 1 and Compound 9. The maximum concentrations of Compound 1 and Compound 9 used were 3 μM and 1 μM, respectively. Signals were normalized to that of the average of the DMSO control wells. […] For each cell line, the maximum % inhibition values were obtained for Compound 1 alone, Compound 9 alone and the combination of both compounds. The degree of drug interaction (i.e. synergy, additivity or antagonism) was quantified for each cell line by the Bliss independence model using the Synergyfinder R package (Ref: He L. et al. (2018) Methods for High-throughput Drug Combination Screening and Synergy Scoring. In: von Stechow L. (eds) Cancer Systems Biology. Methods in Molecular Biology, vol 1711. Humana Press, New York, N.Y.). For each cell line, a single score metric, the sum of synergy and antagonism across screened drug concentrations (SUM_SYN_ANT) (Ref: Di Veroli G. Y. et al (2016) Bioinformatics 32(18):2866-2868), was calculated. Synergy was defined as a score of 21 or above.
On the technique in general: In ATP-based viability assays light output follows the ATP content of the culture.

Another assay relates to 491 cell lines. Kind of assay: In vitro cell line screening, both panels overall. The format is cell-based, human. The settings on record: Total panel, sensitive = maximum inhibition greater than 50% relative to DMSO, max 3 μM Compound 1, 1 μM Compound 9, 120-hour incubation. Here is the method:
as §1, with “Cells” for “The effect of Compound 1 in combination with an ERK inhibitor, Compound 9, on 97 cell lines harboring driver mutations in KRAS (G12A, G12C, G12F, G12R, G12S, G12V, G13C, G13D, A59G, Q61H, Q61K, Q61L or A146T) was assessed using the following technique. Cells”
(§3) Cells from human cancer cells lines (from commercial sources such as ATCC or ECCAC) were grown as 2D monolayers by seeding onto flat-bottom 96-well tissue culture plates (Corning). Cells were allowed to recover for 16-24 hours prior to compound treatment. Compounds or dimethyl sulfoxide (DMSO) were added at various combinations of compound concentrations in a final DMSO concentration of up to 0.5% (v/v). Following a total of 120-hour incubation, CellTiter-Glo reagent(registered trademark) (Promega) was added. Plates were incubated for 10 minutes with gentle shaking at room temperature to lyse the cells, then incubated for further 10 minutes at room temperature to stabilize luminescence signal. After mixing, the mixture was transferred to a fresh plate, and luminescence was determined on EnVision plate reader (Perkin Elmer).
as §2

Assay [3] deals with 394 cell lines that do not depend on KRAS. As to the kind of experiment: In vitro cell line screening, 2D monolayers (CellTiter-Glo), KRAS-independent panel. It is filed as cell-based, human. The settings on record: Non-KRAS panel, sensitive = maximum inhibition greater than 50% relative to DMSO, max 3 μM Compound 1, 1 μM Compound 9, 120-hour incubation. The method, then: as §3, §2

In assay [4] the test system is pERK levels in HCC827 cells. As to the kind of experiment: Cellular pERK inhibition assay (In-Cell Western). The format is cell-based. Particulars: Homo sapiens, relative IC50. The method, then: pERK levels were determined using the In-Cell Western assay. HCC827 cells (ATCC, Manassas, USA) were seeded into 384-well plates at a density of 1×10^4 cells/well in RPMI1640 medium supplemented with 10% FBS and incubated 24 h. Compounds were diluted first in DMSO and then into serum-free medium, before being added to cells in quadruplicate to give a final concentration of 0.2% DMSO. Plates were incubated at 37° C. for the indicated time in a humidified atmosphere of 5% CO2 in air.
Following compound treatment, cells were fixed with formalin neutral buffer solution for 20 minutes at room temperature. Plates were washed three times with 0.1% Triton-X in PBS and cells were blocked for 1 hour with Odyssey blocking buffer (LI-COR, #927-40000). […] Levels of pERK were then expressed as percent of control, using DMSO treated samples as control. The relative IC50 values were calculated in quadruplicate from the normalized dose-response plots using four parameter logistic curve fit. The Experiment for each compound was carried out in one time or multiple times, and the IC50 values were shown as a single value (for a compound measured in a single experiment) or an average value (for a compound measured in multiple experiments).

The next assay deals with T1, SHP2 (Homo sapiens, UniProt Q06124).
T1 sequence (Q06124 1-593): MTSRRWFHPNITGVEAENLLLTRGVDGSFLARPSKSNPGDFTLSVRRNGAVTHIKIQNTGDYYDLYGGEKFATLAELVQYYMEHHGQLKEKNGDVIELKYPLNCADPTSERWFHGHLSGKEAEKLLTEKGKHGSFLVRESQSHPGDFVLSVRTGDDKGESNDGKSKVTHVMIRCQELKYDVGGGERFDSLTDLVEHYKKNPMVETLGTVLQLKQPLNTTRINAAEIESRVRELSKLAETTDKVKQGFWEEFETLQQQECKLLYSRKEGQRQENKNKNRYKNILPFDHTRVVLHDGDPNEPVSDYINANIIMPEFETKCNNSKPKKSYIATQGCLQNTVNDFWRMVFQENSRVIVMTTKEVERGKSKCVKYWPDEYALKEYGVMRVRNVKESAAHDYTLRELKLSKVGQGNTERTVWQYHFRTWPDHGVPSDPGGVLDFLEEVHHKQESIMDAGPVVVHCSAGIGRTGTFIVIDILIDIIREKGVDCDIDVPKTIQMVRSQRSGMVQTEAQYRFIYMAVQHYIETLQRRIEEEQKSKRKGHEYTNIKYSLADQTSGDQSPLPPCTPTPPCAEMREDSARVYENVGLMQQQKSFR
Kind of assay: SHP2 biochemical assay (DiFMUP conversion). The settings on record: 10 pM SHP2, 0.25 μM pIRS1 peptide, 50 μM DiFMUP. The method, then: (1) SHP2 Biochemical Assay SHP2 Activity was Monitored by Measuring the Conversion of the Surrogate Substrate 6,8-Difluoromethylumbelliferyl Phosphate (DiEMUP) to the Fluorescent Product, 6,8-Difluoromethylumbelliferone (DiFMU).
SHP2 was pre-incubated with test compounds and the activating peptide pIRS1 (H2N-LN(pY) IDLDLV-(PEG) 8-LST(pY)ASINFQK-amide) for 30 min, prior to addition of the 6,8-difluoromethylumbelliferyl phosphate (DiEMUP), (Thermo Fisher D6567). Final assay concentrations were 10 pM SHP2, 0.25 μM pIRS1 peptide, 50 μM DiFMUP, 25 mM Bis-Tris propane, pH 7.0, 150 mM NaCl, 0.05% (v/v) Tween-20, 0.5 mM TCEP and 5% (v/v) DMSO. Rates of reaction were then measured over 30 min by monitoring fluorescence on a BMG Pherastar reader at excitation 360 nm/emission 450 nm. IC50 values were calculated in singlicate from the normalized dose-response plots using four parameter logistic curve fit. The Experiment for each compound was carried out in one time or multiple times, and the IC50 values were shown as a single value (for a compound measured in a single experiment) or an average value (for a compound measured in multiple experiments).

Broadly, the T/C is the result in the treated group divided by that in the control group, in per cent. As to `COc1cc(F)cc([C@@H](CO)NC(=O)[C@@H](C)N2Cc3ccc(-c4nc(NC5CCOCC5)ncc4Cl)cc3C2=O)c1` [Compound 9, (2R)-2-(6-{5-chloro-2-[(oxan-4-yl)amino]pyrimidin-4-yl}-1-oxo-2,3-dihydro-1H-isoindol-2-yl)-N-[(1S)-1-(3-fluoro-5-methoxyphenyl)-2-hydroxyethyl]propanamide], the “partial regression (tumor shrinkage of 50% or above), mice” value in assay [1] (Compound 9 alone 50 mg/kg/day) was 1 out of 8. Further, the T/C in assay [1] (Compound 9 alone 50 mg/kg/day oral, once a day, Day 18) was 29%. In assay [1] (Compound 9 alone 50 mg/kg/day, during the treatment period), the tumor response result is “tumor stasis”. In addition, the “Number of cell lines sensitive” value in assay [2] stood at 80; with 491 cell lines it was 284; in assay [3], 204. For the same molecule, the “Number of cell lines sensitive (% of total)” value in assay [2] stood at 82.5%; in the assay on 491 cell lines, 57.8%; in assay [3], 51.8%.

Broadly, the IC50 is the concentration that inhibits the measured activity by half. Low values mean higher potency, high ones lower potency. `CCn1cc2c(Cl)c(-c3c[nH]c4nc(N5C[C@H]6CC[C@@H]5[C@@H]6N)n(C)c(=O)c34)ccc2n1` [Compound 3, 2-((1R,4R,7R)-7-amino-2-azabicyclo[2.2.1]heptan-2-yl)-5-(4-chloro-2-ethyl-2H-indazol-5-yl)-3-methyl-3,7-dihydro-4H-pyrrolo[2,3-d]pyrimidin-4-one]: the IC50 in assay [4] is 35 nM; at SHP2, 4 nM.
